Reference: US12540171B2, “Compositions and methods for treating ocular disease” (Asclepix Therapeutics, Inc., priority 2019, dated 2026)
No end group written: not given here.

Legend:
[1] = Drug levels in the retina after intravitreal injection, LC/MS/MS; format: in vivo, Dutch-Belted rabbits; conditions: 225, 271, and 315 days after a single injection
Description: The rabbits were then sacrificed at various time points, and the various ocular tissues were separated. The drug levels in the retina were measured by Liquid chromatography-mass spectrometry (LC/MS/MS). The drug levels were plotted as ng/g. The Kd for binding of AXT107 to its integrin targets is 1-2 nM.

[2] = Gel formation and persistence in the vitreous after intravitreal injection
Description: In FIG. 3, AXT107 was injected into the vitreous of Dutch-Belted rabbits. […] The retina with the optic nerve is visible in the back of the eye.
In FIG. 7, AXT107 was injected into the vitreous of Dutch-Belted rabbits in a PK toxicology study.

LRRFSTAPFAFIDINDVINF [AXT107]
AXT107 level in the retina [1]: significant levels
gels in the vitreous at necropsy, PK toxicology study ([2]; Dutch-Belted rabbits, 6 Months after administration, all doses): visible in the vitreous at all doses
effect of gel on the visual axis ([2]; rabbit eye, after intravitreal injection): does not block the visual axis
time the gel stays in place without breaking apart or migrating ([2]; rabbit eye, doses of 100 μg, 250 μg, 500 μg, and 1000 μg): 15 months
release of peptide from gel ([2]; rabbit vitreous): released the peptide in a sustained manner
